Reference: ChEMBL document CHEMBL5154687, “Intramolecular hydrogen bond interruption and scaffold hopping of TMC-5 led to 2-(4-alkoxy-3-cyanophenyl)pyrimidine-4/5-carboxylic acids and 6-(4-alkoxy-3-cyanophenyl)-1,2-dihydro-3H-pyrazolo[3,4-d]pyrimidin-3-ones as potent pyrimidine-based xanthine oxidase inhibitors” (Eur J Med Chem, 2022)
The source made the active and inactive calls. The calls are words filed in the database; no cut-off is given here.

Columns and labels:
Rattus norvegicus = test: Hypouricemic activity in overnight-fasted Sprague-Dawley rat model of Potassium oxonate-induced acute hyperuricemia assessed as decrease in serum uric acid at 10 mg/kg, po administered after potassium oxonate treatment and measured up to 5 hrs relative to control; format: functional, organism-based
[1] = target: T1, Xanthine dehydrogenase/oxidase (Homo sapiens, UniProt P47989); test: Mixed-type inhibition of xanthine oxidase (unknown origin) assessed as Inhibitor dissociation constant using xanthine as substrate incubated for 15 mins followed by substrate addition by UV spectrophotometric analysis; settings: read-out: Kis
T1 sequence (P47989 whole entry): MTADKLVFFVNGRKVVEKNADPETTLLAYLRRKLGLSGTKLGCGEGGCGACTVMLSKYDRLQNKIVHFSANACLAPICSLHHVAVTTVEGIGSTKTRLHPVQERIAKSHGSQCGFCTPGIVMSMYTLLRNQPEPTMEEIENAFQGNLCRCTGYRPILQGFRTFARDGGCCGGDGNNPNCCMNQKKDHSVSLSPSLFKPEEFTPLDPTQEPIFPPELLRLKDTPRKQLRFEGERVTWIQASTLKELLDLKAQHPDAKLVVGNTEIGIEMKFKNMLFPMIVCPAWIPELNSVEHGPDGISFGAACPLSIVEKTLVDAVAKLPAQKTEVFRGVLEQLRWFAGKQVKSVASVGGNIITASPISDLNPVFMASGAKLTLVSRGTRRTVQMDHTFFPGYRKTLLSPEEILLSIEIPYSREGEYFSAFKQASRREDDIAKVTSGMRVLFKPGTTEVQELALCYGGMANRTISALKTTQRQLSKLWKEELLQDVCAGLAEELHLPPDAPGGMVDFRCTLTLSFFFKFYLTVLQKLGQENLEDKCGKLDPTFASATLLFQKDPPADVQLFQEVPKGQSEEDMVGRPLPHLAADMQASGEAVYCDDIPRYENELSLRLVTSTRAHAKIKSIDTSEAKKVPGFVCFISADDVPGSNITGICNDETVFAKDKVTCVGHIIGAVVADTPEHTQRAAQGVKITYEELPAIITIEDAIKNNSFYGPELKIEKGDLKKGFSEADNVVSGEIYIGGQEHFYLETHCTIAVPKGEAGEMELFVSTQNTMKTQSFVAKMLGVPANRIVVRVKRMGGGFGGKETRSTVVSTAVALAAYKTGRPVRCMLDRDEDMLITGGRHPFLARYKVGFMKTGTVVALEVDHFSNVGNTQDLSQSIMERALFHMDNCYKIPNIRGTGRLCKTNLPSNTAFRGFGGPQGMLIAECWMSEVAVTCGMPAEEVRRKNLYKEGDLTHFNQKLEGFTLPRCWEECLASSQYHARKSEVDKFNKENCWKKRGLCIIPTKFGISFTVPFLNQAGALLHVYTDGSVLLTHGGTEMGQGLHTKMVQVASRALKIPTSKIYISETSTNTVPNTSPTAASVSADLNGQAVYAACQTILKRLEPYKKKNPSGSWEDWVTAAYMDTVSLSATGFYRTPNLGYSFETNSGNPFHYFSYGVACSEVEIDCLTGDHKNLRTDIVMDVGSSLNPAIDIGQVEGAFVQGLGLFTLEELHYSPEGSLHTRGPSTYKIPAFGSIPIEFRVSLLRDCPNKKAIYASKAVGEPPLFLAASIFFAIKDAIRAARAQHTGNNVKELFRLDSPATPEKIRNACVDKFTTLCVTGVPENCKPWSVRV

[2] = target: T1, Xanthine dehydrogenase/oxidase
Description: Inhibition of xanthine oxidase (unknown origin) using xanthine as substrate preincubated for 15 mins followed by substrate addition by UV spectrophotometric analysis

Row | SMILES | Activity (Rattus norvegicus) | Ki [1] [nM] | IC50 [2] [nM]
1 | CC(C)Oc1ccc(-c2ncc3c(=O)[nH][nH]c3n2)cc1C#N | Active | – | –
2 | CC(C)Oc1ccc(-c2nccc(C(=O)O)n2)cc1C#N | Active | – | –
3 | Cc1nc(-c2ccc(OCC(C)C)c(C#N)c2)sc1C(=O)O [FEBUXOSTAT] | – | 0.9 | 28
